Source: patent US20220177508A1, “C10-Cyclic Substituted 13-Membered Macrolides and Uses Thereof” (Zikani Therapeutics, Inc., priority 2018, published 2022)
In brackets after ≈: the same amount, converted by molar mass.

Columns and labels:
Format in all cases: cell-based
S. aureus MP-12 = experiment: Broth dilution MIC determination (CLSI), S. aureus MP-12; settings: Staphylococcus aureus, MP12; strain MP-12, broth dilution
E. coli MP-4 = experiment: Broth dilution MIC determination (CLSI), E. coli MP-4; settings: Escherichia coli, MP4; strain MP-4, broth dilution; read-out: MIC E. coli MP-4
K. pneumoniae MP-546 = experiment: Broth dilution MIC determination (CLSI), K. pneumoniae MP-546; settings: Klebsiella pneumoniae, MP546; strain MP-546, broth dilution
A. baumannii MP-15 = experiment: Broth dilution MIC determination (CLSI), A. baumannii MP-15; settings: Acinetobacter baumannii, MP15; strain MP-15, broth dilution; read-out: MIC A. baumanii MP-15
P. aeruginosa MP-3 = experiment: Broth dilution MIC determination (CLSI), P. aeruginosa MP-3; settings: Pseudomonas aeruginosa, MP3; strain MP-3, broth dilution

SMILES	MIC (S. aureus MP-12)	MIC (E. coli MP-4)	MIC (K. pneumoniae MP-546)	MIC (A. baumannii MP-15)	MIC (P. aeruginosa MP-3)
CO[C@]1(C)C[C@@H](C)CN(C)[C@H](C2CCN(C(=O)CNCC(C)C)CC2)COC(=O)C(C)(C)C(=O)[C@H](C)[C@H]1O[C@@H]1O[C@H](C)C[C@H](N(C)C)[C@H]1O [Compound 66, (3R,6R,8R,9R,10R)-9-(((2S,3R,4S,6R)-4-(dimethylamino)-3-hydroxy-6-methyltetrahydro-2H-pyran-2-yl)oxy)-3-(1-(isobutylglycyl)piperidin-4-yl)-8-methoxy-4,6,8,10,12,12-hexamethyl-1-oxa-4-azacyclotridecane-11,13-dione]	> 32 µg/mL	< 4 µg/mL	4 to 32 µg/mL (≈ 5.74 to 45.9 µM)	> 32 µg/mL	> 32 µg/mL
CO[C@]1(C)C[C@@H](C)CN(C)[C@H](c2ccc(B(O)O)cc2)COC(=O)C(C)(C)C(=O)[C@H](C)[C@H]1O[C@@H]1O[C@H](C)C[C@H](N(C)C)[C@H]1O [Compound 133, (4-((3R,6R,8R,9R,10R)-9-(((2S,3R,4S,6R)-4-(Dimethylamino)-3-hydroxy-6-methyltetrahydro-2H-pyran-2-yl)oxy)-8-methoxy-4,6,8,10,12,12-hexamethyl-11,13-dioxo-1-oxa-4-azacyclotridecan-3-yl)phenyl)boronic acid]	> 32 µg/mL	4 to 32 µg/mL (≈ 6.45 to 51.6 µM)	> 32 µg/mL	> 32 µg/mL	> 32 µg/mL
CO[C@]1(C)C[C@@H](C)CN(C)[C@H](C2CCN(S(C)(=O)=O)CC2)COC(=O)C(C)(C)C(=O)[C@H](C)[C@H]1O[C@@H]1O[C@H](C)C[C@H](N(C)C)[C@H]1O [Compound 142, (3R,6R,8R,9R,10R)-9-(((2S,3R,4S,6R)-4-(dimethylamino)-3-hydroxy-6-methyltetrahydro-2H-pyran-2-yl)oxy)-8-methoxy-4,6,8,10,12,12-hexamethyl-3-(1-(methylsulfonyl)piperidin-4-yl)-1-oxa-4-azacyclotridecane-11,13-dione]	4 to 32 µg/mL (≈ 6.04 to 48.3 µM)	4 to 32 µg/mL (≈ 6.04 to 48.3 µM)	4 to 32 µg/mL (≈ 6.04 to 48.3 µM)	> 32 µg/mL	> 32 µg/mL
CO[C@]1(C)C[C@@H](C)CN[C@H](c2ccccc2)COC(=O)[C@H](C)C(=O)[C@H](C)[C@H]1O[C@@H]1OC(C)CC(N(C)C)C1O (stereo partly drawn) [Compound 204]	> 32 µg/mL	> 32 µg/mL	> 32 µg/mL	> 32 µg/mL	> 32 µg/mL
CO[C@]1(C)C[C@@H](C)CN(C)[C@H](C2CN(CC(=O)NCc3ccccc3)C2)COC(=O)C(C)(C)C(=O)[C@H](C)[C@H]1O[C@@H]1O[C@H](C)C[C@H](N(C)C)[C@H]1O [Compound 20, N-benzyl-2-(3-((3R,6R,8R,9R,10R)-9-(((2S,3R,4S,6R)-4-(dimethylamino)-3-hydroxy-6-methyltetrahydro-2H-pyran-2-yl)oxy)-8-methoxy-4,6,8,10,12,12-hexamethyl-11,13-dioxo-1-oxa-4-azacyclotridecan-3-yl)azetidin-1-yl)acetamide]	4 to 32 µg/mL (≈ 5.69 to 45.5 µM)	< 4 µg/mL	4 to 32 µg/mL (≈ 5.69 to 45.5 µM)	> 32 µg/mL	> 32 µg/mL
CO[C@]1(C)C[C@@H](C)CN(C)[C@H](c2ccccc2)COC(=O)C(C)(C)C(=O)[C@H](C)[C@H]1O[C@@H]1O[C@H](C)C[C@H](N(C)C)[C@H]1O [Compound 42, (3R,6R,8R,9R,10R)-9-(((2S,3R,4S,6R)-4-(Dimethylamino)-3-hydroxy-6-methyltetrahydro-2H-pyran-2-yl)oxy)-8-methoxy-4,6,8,10,12,12-hexamethyl-3-phenyl-1-oxa-4-azacyclotridecane-11,13-dione]	> 32 µg/mL	4 to 32 µg/mL (≈ 6.94 to 55.5 µM)	> 32 µg/mL	> 32 µg/mL	> 32 µg/mL
CO[C@]1(C)C[C@@H](C)CN(C)[C@@H]([C@H]2CCN(C(=O)CN(C)C)C2)COC(=O)C(C)(C)C(=O)[C@H](C)[C@H]1O[C@@H]1O[C@H](C)C[C@H](N(C)C)[C@H]1O [Compound 67, (3S,6R,8R,9R,10R)-9-(((2S,3R,4S,6R)-4-(dimethylamino)-3-hydroxy-6-methyltetrahydro-2H-pyran-2-yl)oxy)-3-((S)-1-(dimethylglycyl)pyrrolidin-3-yl)-8-methoxy-4,6,8,10,12,12-hexamethyl-1-oxa-4-azacyclotridecane-11,13-dione]	> 32 µg/mL	< 4 µg/mL	4 to 32 µg/mL (≈ 6.11 to 48.9 µM)	> 32 µg/mL	> 32 µg/mL
CO[C@]1(C)C[C@@H](C)CN(C)[C@@H](C2CCNCC2)COC(=O)C(C)(C)C(=O)[C@H](C)[C@H]1O[C@@H]1O[C@H](C)C[C@H](N(C)C)[C@H]1O [Compound 98, (3S,6R,8R,9R,10R)-9-(((2S,3R,4S,6R)-4-(dimethylamino)-3-hydroxy-6-methyltetrahydro-2H-pyran-2-yl)oxy)-8-methoxy-4,6,8,10,12,12-hexamethyl-3-(piperidin-4-yl)-1-oxa-4-azacyclotridecane-11,13-dione]	4 to 32 µg/mL (≈ 6.85 to 54.8 µM)	< 4 µg/mL	4 to 32 µg/mL (≈ 6.85 to 54.8 µM)	> 32 µg/mL	> 32 µg/mL

Other lines, results leading:

MIC (S. aureus MP-12)	MIC (E. coli MP-4)	MIC (K. pneumoniae MP-546)	MIC (A. baumannii MP-15)	MIC (P. aeruginosa MP-3)	SMILES
4 to 32 µg/mL (≈ 6 to 48 µM)	< 4 µg/mL	4 to 32 µg/mL (≈ 6 to 48 µM)	> 32 µg/mL	> 32 µg/mL	CO[C@]1(C)C[C@@H](C)CN(C)[C@H](C2CN(CC(=O)N3CCCC3)C2)COC(=O)C(C)(C)C(=O)[C@H](C)[C@H]1O[C@@H]1O[C@H](C)C[C@H](N(C)C)[C@H]1O [Compound 45, (3R,6R,8R,9R,10R)-9-(((2S,3R,4S,6R)-4-(dimethylamino)-3-hydroxy-6-methyltetrahydro-2H-pyran-2-yl)oxy)-8-methoxy-4,6,8,10,12,12-hexamethyl-3-(1-(2-oxo-2-(pyrrolidin-1-yl)ethyl)azetidin-3-yl)-1-oxa-4-azacyclotridecane-11,13-dione]
> 32 µg/mL	< 4 µg/mL	< 4 µg/mL	> 32 µg/mL	> 32 µg/mL	CO[C@]1(C)C[C@@H](C)CN(C)[C@H]([C@H]2CCN(C)C2)COC(=O)C(C)(C)C(=O)[C@H](C)[C@H]1O[C@@H]1O[C@H](C)C[C@H](N(C)C)[C@H]1O [Compound 166, (3R,6R,8R,9R,10R)-9-(((2S,3R,4S,6R)-4-(Dimethylamino)-3-hydroxy-6-methyltetrahydro-2H-pyran-2-yl)oxy)-8-methoxy-4,6,8,10,12,12-hexamethyl-3-((S)-1-methylpyrrolidin-3-yl)-1-oxa-4-azacyclotridecane-11,13-dione]
> 32 µg/mL	4 to 32 µg/mL (≈ 6.16 to 49.2 µM)	> 32 µg/mL	> 32 µg/mL	> 32 µg/mL	CO[C@]1(C)C[C@@H](C)CN(C)[C@H](C2CN(Cc3cn(C)cn3)C2)COC(=O)C(C)(C)C(=O)[C@H](C)[C@H]1O[C@@H]1O[C@H](C)C[C@H](N(C)C)[C@H]1O [Compound 173, (3R,6R,8R,9R,10R)-9-(((2S,3R,4S,6R)-4-(dimethylamino)-3-hydroxy-6-methyltetrahydro-2H-pyran-2-yl)oxy)-8-methoxy-4,6,8,10,12,12-hexamethyl-3-(1-((1-methyl-1H-imidazol-4-yl)methyl)azetidin-3-yl)-1-oxa-4-azacyclotridecane-11,13-dione]
> 32 µg/mL	< 4 µg/mL	4 to 32 µg/mL (≈ 5.86 to 46.9 µM)	> 32 µg/mL	> 32 µg/mL	CCN(CC)[C@H](C)C(=O)N1CC([C@H]2COC(=O)C(C)(C)C(=O)[C@H](C)[C@@H](O[C@@H]3O[C@H](C)C[C@H](N(C)C)[C@H]3O)[C@](C)(OC)C[C@@H](C)CN2C)C1 [Compound 74, (3S,6R,8R,9R,10R)-3-(1-(diethyl-D-alanyl)azetidin-3-yl)-9-(((2S,3R,4S,6R)-4-(dimethylamino)-3-hydroxy-6-methyltetrahydro-2H-pyran-2-yl)oxy)-8-methoxy-4,6,8,10,12,12-hexamethyl-1-oxa-4-azacyclotridecane-11,13-dione]
> 32 µg/mL	< 4 µg/mL	4 to 32 µg/mL (≈ 6.11 to 48.9 µM)	> 32 µg/mL	> 32 µg/mL	CO[C@]1(C)C[C@@H](C)CN(C)[C@@H](C2CN(C(=O)[C@@H](C)N(C)C)C2)COC(=O)C(C)(C)C(=O)[C@H](C)[C@H]1O[C@@H]1O[C@H](C)C[C@H](N(C)C)[C@H]1O [Compound 52, (3S,6R,8R,9R,10R)-3-(1-(dimethyl-D-alanyl)azetidin-3-yl)-9-(((2S,3R,4S,6R)-4-(dimethylamino)-3-hydroxy-6-methyltetrahydro-2H-pyran-2-yl)oxy)-8-methoxy-4,6,8,10,12,12-hexamethyl-1-oxa-4-azacyclotridecane-11,13-dione]
4 to 32 µg/mL (≈ 6.24 to 49.9 µM)	< 4 µg/mL	< 4 µg/mL	> 32 µg/mL	> 32 µg/mL	CO[C@]1(C)C[C@@H](C)CN(C)[C@@H](C2CN(C(=O)CN(C)C)C2)COC(=O)C(C)(C)C(=O)[C@H](C)[C@H]1O[C@@H]1O[C@H](C)C[C@H](N(C)C)[C@H]1O [Compound 184, (3S,6R,8R,9R,10R)-9-(((2S,3R,4S,6R)-4-(dimethylamino)-3-hydroxy-6-methyltetrahydro-2H-pyran-2-yl)oxy)-3-(1-(dimethylglycyl)azetidin-3-yl)-8-methoxy-4,6,8,10,12,12-hexamethyl-1-oxa-4-azacyclotridecane-11,13-dione]
> 32 µg/mL	< 4 µg/mL	4 to 32 µg/mL (≈ 6.54 to 52.3 µM)	> 32 µg/mL	> 32 µg/mL	CO[C@]1(C)C[C@@H](C)CN(C)[C@H]([C@@H]2CCN(C(C)C)C2)COC(=O)C(C)(C)C(=O)[C@H](C)[C@H]1O[C@@H]1O[C@H](C)C[C@H](N(C)C)[C@H]1O [Compound 46, (3R,6R,8R,9R,10R)-9-(((2S,3R,4S,6R)-4-(Dimethylamino)-3-hydroxy-6-methyltetrahydro-2H-pyran-2-yl)oxy)-3-((R)-1-isopropylpyrrolidin-3-yl)-8-methoxy-4,6,8,10,12,12-hexamethyl-1-oxa-4-azacyclotridecane-11,13-dione]
